These results are taken from PubChem BioAssay AID248 (DTP/NCI, 2004).

“And” between values parts separate entries of the source, which are not always exact repeats. Equal values may be shown once. Inconclusive results and toxic doses are left out.

In the assay the test system is L1210 leukemia ip in BDF1 mice, survival T/C. Description: NCI In Vivo Anticancer Drug Screen. Data for tumor model L1210 Leukemia (intraperitoneal) in B6D2F1 (BDF1) mice. The following applies: endpoint: mean survival time, higher = longer survival. The essentials:
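Antitumor effect is assessed in tumor-bearing animals. Survival in the compound arm is compared with a vehicle-dosed control arm and expressed as their quotient.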

The mark [1] stands for this setting: dose: 100.0 mg/kg/injection, schedule: Q04DX002 (ip), vehicle: saline with Tween-80.
The mark [2] stands for this setting: dose: 100.0 mg/kg/injection, schedule: Q01DX009 (ip), vehicle: Klucel (hydroxypropylcellulose) (HPC).
Where [3] appears, read: dose: 100.0 mg/kg/injection, schedule: Q04DX003 (ip), vehicle: Klucel (hydroxypropylcellulose) (HPC).
Where [4] appears, read: dose: 200.0 mg/kg/injection, schedule: Q04DX003 (ip), vehicle: Klucel (hydroxypropylcellulose) (HPC).
The mark [5] stands for this setting: dose: 400.0 mg/kg/injection, schedule: Q04DX003 (ip), vehicle: Klucel (hydroxypropylcellulose) (HPC).
Setting [6] is: dose: 100.0 mg/kg/injection, schedule: Q01DX009 (ip), vehicle: saline with Tween-80.
Setting [7] is: dose: 100.0 mg/kg/injection, schedule: Q04DX003 (ip), vehicle: saline with Tween-80.
The mark [8] stands for this setting: dose: 200.0 mg/kg/injection, schedule: Q01DX009 (ip), vehicle: saline with Tween-80.
Where [9] appears, read: dose: 200.0 mg/kg/injection, schedule: Q04DX003 (ip), vehicle: saline with Tween-80.
Setting [10] is: dose: 400.0 mg/kg/injection, schedule: Q01DX009 (ip), vehicle: saline with Tween-80.
Where [11] appears, read: dose: 50.0 mg/kg/injection, schedule: Q04DX003 (ip), vehicle: Klucel (hydroxypropylcellulose) (HPC).
Where [12] appears, read: dose: 100.0 mg/kg/injection, schedule: Q04DX002 (ip), vehicle: Klucel (hydroxypropylcellulose) (HPC).
Setting [13] is: dose: 200.0 mg/kg/injection, schedule: Q04DX002 (ip), vehicle: Klucel (hydroxypropylcellulose) (HPC).
Setting [14] is: dose: 400.0 mg/kg/injection, schedule: Q04DX002 (ip), vehicle: Klucel (hydroxypropylcellulose) (HPC).
[15] abbreviates: dose: 50.0 mg/kg/injection, schedule: Q01DX009 (ip), vehicle: saline with Tween-80.
Where [16] appears, read: dose: 200.0 mg/kg/injection, schedule: Q04DX002 (ip), vehicle: saline with Tween-80.
Where [17] appears, read: dose: 400.0 mg/kg/injection, schedule: Q04DX002 (ip), vehicle: saline with Tween-80.

Consider `C/C=C/C=C\COC(=O)C(C)Cl` (stereo unspecified), for which the T/C (dose: 100.0 mg/kg/injection, schedule: Q04DX002 (ip), vehicle: saline) was 108 % of control; the T/C (dose: 200.0 mg/kg/injection, schedule: Q04DX002 (ip), vehicle: saline) is 103 % of control; the T/C (dose: 400.0 mg/kg/injection, schedule: Q04DX002 (ip), vehicle: saline) was 108 % of control.

`CCCCC#C/C(C)=N\Nc1ccc([N+](=O)[O-])cc1[N+](=O)[O-]`: the T/C is, setting by setting: (dose: 50.0 mg/kg/injection, schedule: Q04DX002 (ip), vehicle: saline with Tween-80) 98 % of control; under setting [1], 173 % of control.

For the molecule `Nc1ncc([N+](=O)[O-])cn1`, the T/C under setting [2] was 107 % of control; the T/C under setting [3] is 103 % of control; the T/C (dose: 200.0 mg/kg/injection, schedule: Q01DX009 (ip), vehicle: Klucel (hydroxypropylcellulose) (HPC)) is 91 % of control; the T/C under setting [4] is 97 % of control; the T/C (dose: 400.0 mg/kg/injection, schedule: Q01DX009 (ip), vehicle: Klucel (hydroxypropylcellulose) (HPC)) was 100 % of control; the T/C under setting [5] is 94 % of control.

In the case of `CCc1cc(C)cc(OC(=O)Nc2ccccc2)c1`, the T/C under setting [6] is 87 % of control; the T/C under setting [7] is 93 % of control; the T/C under setting [8] was 88 % of control; the T/C under setting [9] was 93 % of control; the T/C under setting [10] was 92 % of control.

For the molecule `CCCCOC(=O)c1ccc(OCCOc2ccc(C(C)(C)CC(C)(C)C)cc2)c(NC(=O)CC(=O)c2cccc(N)c2)c1`, the T/C reads like this: (dose: 100.0 mg/kg/injection, schedule: Q01DX009 (ip), vehicle: saline sonified) 97 % of control; under setting [3], 96 % of control; (dose: 200.0 mg/kg/injection, schedule: Q01DX009 (ip), vehicle: saline sonified) 91 % of control; under setting [4], 93 % of control; (dose: 400.0 mg/kg/injection, schedule: Q01DX009 (ip), vehicle: saline sonified) 103 % of control; under setting [5], 88 % of control.

With `NNC(=O)c1ccccc1[N+](=O)[O-]`, the T/C is 95 % of control (dose: 25.0 mg/kg/injection, schedule: Q01DX009 (ip), vehicle: Klucel (hydroxypropylcellulose) (HPC)); 94 % of control (dose: 50.0 mg/kg/injection, schedule: Q01DX009 (ip), vehicle: Klucel (hydroxypropylcellulose) (HPC)); 100 % of control under setting [11]; 101 % of control under setting [2]; 100 % of control under setting [3].

Turning to `O=C(O)C1CC=CCC1C(=O)Nc1cccc(O)c1` (stereo unspecified), the T/C reads like this: under setting [12], 99 % of control; under setting [13], 105 % of control; under setting [14], 99 % of control.

`CCCc1ccccc1NC(=O)NCCCl`: the T/C by setting is: (dose: 25.0 mg/kg/injection, schedule: Q04DX003 (ip), vehicle: Klucel (hydroxypropylcellulose) (HPC)) 106 % of control; under setting [11], 101 % of control; under setting [3], 105 % of control and 86 % of control; under setting [4], 89 % of control; under setting [5], 88 % of control.

Regarding `O=C(O)/C(=C(/Cc1ccccc1)C(=O)c1ccccc1)c1ccccc1`, the T/C under setting [15] is 98 % of control, the T/C under setting [6] was 88 % of control and the T/C under setting [8] was 91 % of control.

As for `Nc1nc(N)c(N=O)c(Nc2ccc(O)cc2)n1`, the T/C by setting is: under setting [3], 103 % of control; (dose: 200.0 mg/kg/injection, schedule: Q01DX Z (ip), vehicle: methylcellulose (MC)) 91 % of control; under setting [4], 97 % of control; under setting [5], 100 % of control.

For `O=C(CNC(=O)C(CSCc1ccccc1)NC(=O)OCc1ccccc1)OCc1ccccc1` (stereo unspecified), the T/C (dose: 25.0 mg/kg/injection, schedule: Q01DX009 (ip), vehicle: gum acacia) was 92 % of control; the T/C (dose: 50.0 mg/kg/injection, schedule: Q01DX009 (ip), vehicle: gum acacia) is 87 % of control; the T/C (dose: 100.0 mg/kg/injection, schedule: Q01DX009 (ip), vehicle: gum acacia) is 94 % of control; the T/C under setting [3] was 89 % of control; the T/C under setting [5] is 99 % of control.

As for `CC(=O)c1ccc(OC(=O)Nc2ccc(Cl)cc2)cc1`, the T/C reads like this: (dose: 25.0 mg/kg/injection, schedule: Q01DX009 (ip), vehicle: saline with Tween-80) 106 % of control and 108 % of control; under setting [15], 106 % of control and 112 % of control; under setting [1], 100 % of control and 103 % of control; under setting [7], 103 % of control; under setting [16], 95 % of control and 92 % of control; under setting [9], 108 % of control. The T/C under setting [17] was 97 % of control and 100 % of control.

Consider `Cc1cccc(OCCOC(=O)Nc2ccccc2C(F)(F)F)c1`, for which the T/C reads like this: under setting [3], 87 % of control; under setting [4], 88 % of control; under setting [5], 90 % of control.

With `CCCCCCCCCCCCCOc1ccc(Sc2ccc([N+](=O)[O-])cc2)cc1`, the T/C under setting [5] was 88 % of control.

With `COc1cccc(NC(=S)NC(=O)c2ccccc2)c1`, the T/C was 110 % of control under setting [12], 92 % of control under setting [13] and 103 % of control under setting [14].

For the molecule `CC(C)n1ncc2c(N)ncnc21`, the T/C (dose: 7.5 mg/kg/injection, schedule: Q01DX001 (ip), vehicle: saline) was 107 % of control; the T/C (dose: 7.5 mg/kg/injection, schedule: Q04DX003 (ip), vehicle: saline) was 100 % of control; the T/C (dose: 15.0 mg/kg/injection, schedule: Q01DX001 (ip), vehicle: saline) is 100 % of control; the T/C (dose: 15.0 mg/kg/injection, schedule: Q04DX003 (ip), vehicle: saline) was 97 % of control; the T/C (dose: 30.0 mg/kg/injection, schedule: Q01DX001 (ip), vehicle: saline) was 100 % of control; the T/C (dose: 30.0 mg/kg/injection, schedule: Q04DX003 (ip), vehicle: saline) was 98 % of control.

For the molecule `CCc1cc(C)cc(OC(=O)Nc2cc(Cl)ccc2OC)c1`, the T/C reads like this: (dose: 100.0 mg/kg/injection, schedule: Q01DX001 (ip), vehicle: saline with Tween-80) 104 % of control; under setting [6], 95 % of control; under setting [1], 94 % of control and 95 % of control; (dose: 200.0 mg/kg/injection, schedule: Q01DX001 (ip), vehicle: saline with Tween-80) 93 % of control; under setting [8], 93 % of control; under setting [16], 95 % of control and 90 % of control. Further, the T/C was 95 % of control (dose: 400.0 mg/kg/injection, schedule: Q01DX001 (ip), vehicle: saline with Tween-80); 119 % of control under setting [10]; 95 % of control and 86 % of control under setting [17].
